From patent US9161935B2 (TEVA PHARMACEUTICAL INDUSTRIES, LTD., priority 2012, dated 2015)

System: fecal calprotectin
Experiment: Phase IIa trial CD-LAQ-201: changes in fecal calprotectin levels
Type: in vivo, human
Settings: for % of patients with a calprotectin decrease from ≧250 μg/g to below 250 μg/g & greater than 50% reduction: Week 8
Text: As used herein, “calprotectin” is a calcium and zinc binding anti-microbial protein released by granulocytes. This protein can be detected in stool and its concentration reflects the number of polymorphonuclear leukocytes (PMN), migrating into the gut lumen. It is therefore considered a bio-marker for intestinal inflammation. […] Proportion of subjects in clinical remission (total CDAI score <150) at weeks 4, 6, 8 and 12 (and were not treatment failures). • 2. Proportion of subjects who respond to treatment (decrease from baseline of at least 100 points in CDAI score ore remission) at week 4, 6, 8 and 12. • 3. Time to remission. • 4. Time to response. • 5. C-Reactive Protein (CRP) change from baseline at weeks 2, 4, 6, 8 and 12. • 6. Fecal calprotectin change from baseline to weeks 2, 4, 6, 8 and 12. • 7. Proportion of subjects with a decrease from baseline of at least 50% in the number of open draining fistulas.

CCN(C(=O)c1c(O)c2c(Cl)cccc2n(C)c1=O)c1ccccc1 [laquinimod]
% Change from Baseline in fecal calprotectin level at Week 8, Mean ± SD (Laq 0.5 mg): 25.5 ± 132.93% | % Change from Baseline in fecal calprotectin level at Week 8, Median (Laq 0.5 mg): −23.1% | % of patients with a calprotectin decrease from ≧250 μg/g to below 250 μg/g & greater than 50% reduction (Laq 0.5 mg): 38.9% | % Change from Baseline in fecal calprotectin level at Week 8, Mean ± SD (Laq 1.0 mg): 0.2 ± 91.55% | % Change from Baseline in fecal calprotectin level at Week 8, Median (Laq 1.0 mg): −14.4% | % of patients with a calprotectin decrease from ≧250 μg/g to below 250 μg/g & greater than 50% reduction (Laq 1.0 mg): 38.9% | % Change from Baseline in fecal calprotectin level at Week 8, Mean ± SD (Laq 1.5 mg): 13.9 ± 108.97% | % Change from Baseline in fecal calprotectin level at Week 8, Median (Laq 1.5 mg): −18.7% | % of patients with a calprotectin decrease from ≧250 μg/g to below 250 μg/g & greater than 50% reduction (Laq 1.5 mg): 26.7% | % Change from Baseline in fecal calprotectin level at Week 8, Mean ± SD (Laq 2.0 mg): 44.3 ± 198.71% | % Change from Baseline in fecal calprotectin level at Week 8, Median (Laq 2.0 mg): −20.1% | % of patients with a calprotectin decrease from ≧250 μg/g to below 250 μg/g & greater than 50% reduction (Laq 2.0 mg): 36.4% | effect on fecal calprotectin (all doses (0.5-2 mg/day)): reduced fecal calprotectin | objective measures of intestinal inflammation in active CD (all doses (LAQ 0.5-2 mg/day)): reduce objective measures of intestinal inflammation | percentage of patients with fecal calprotectin ≧250 μg/g at baseline showing at least a 50% reduction and levels <250 μg/g at Week 8 (laquinimod groups (all doses), pooled placebo 13.6%): 26.7-38.9%
